Experiments:
Format in all cases: physicochemical
[1] = Degradation of the active stereoisomer S,S at 25° C. and 65% R.H.
Description: (§1) In the following Tables 14-25, the percentage values are reported of the degradation of the active stereoisomer S,S calculated at 40° C. and 75% R.H. (Tables 14-19) and at 25° C. and 65% R.H.

[2] = Stability test in thermostated heaters at 40° C. and 75% R.H., active ingredient %; conditions: heat-sealed aluminium/aluminium bags
Description: (§2) In the following Tables 2-13, the percentage values are repotted which were obtained in the stability tests carried out on the products of examples 1-6. The stability tests were carried out in thermostated heaters at 40° C. and 75% R.H (tables 2-7) as well as 25° C. and 60% R.H. (tables 8-13), preserving the samples in heat-sealed aluminium/aluminium bags according to the following criteria: the active ingredient % was determined for every sampling point taken under consideration.

[3] = Degradation of the active stereoisomer S,S at 40° C. and 75% R.H.
Description: as §1

[4] = Stability test in thermostated heaters at 25° C. and 60% R.H., active ingredient %; conditions: heat-sealed aluminium/aluminium bags
Description: as §2

[5] = Moisture % K.F. of the stability samples; conditions: sample used in the stability test
Description: as §2, with “the active ingredient % was determined for every sampling point taken under consideration.” left out

C[S+](CCC(N)C(=O)[O-])C[C@H]1O[C@@H](n2cnc3c(N)ncnc32)[C@H](O)[C@@H]1O.O=S(=O)(O)O.O=S(=O)(O)O.O=S(=O)([O-])[O-].[Mg+2] (some centres unmarked) [SAMe•2.0H2SO4•1.0Mg2SO4•0.4H2O]
percentage of the active S,S stereoisomer remaining ([1]; 30 days): 97.3%
percentage of the active S,S stereoisomer remaining ([1]; 90 days): 96.4%
percentage of the active S,S stereoisomer remaining ([1]; 180 days): 94.1%
percentage of the active S,S stereoisomer remaining ([1]; 360 days): 91.3%
percentage of the active S,S stereoisomer remaining ([1]; 720 days): 89.8%
percentage of the active S,S stereoisomer remaining ([1]; T = 0): 97.5%
stability test percentage value (active ingredient %), 30 days [2]: 0.33%
stability test percentage value (active ingredient %), 60 days [2]: 0.44%
stability test percentage value (active ingredient %), 90 days [2]: 0.61%
stability test percentage value (active ingredient %), 120 days [2]: 1.02%
stability test percentage value (active ingredient %), 180 days [2]: 1.59%
percentage of active S,S stereoisomer remaining ([3]; 30 days): 91.3%
percentage of active S,S stereoisomer remaining ([3]; 60 days): 89.4%
percentage of active S,S stereoisomer remaining ([3]; 90 days): 84.1%
percentage of active S,S stereoisomer remaining ([3]; 120 days): 81.3%
percentage of active S,S stereoisomer remaining ([3]; 180 days): 75.8%
percentage of active S,S stereoisomer remaining ([3]; T = 0): 97.5%
stability test percentage value (active ingredient %), 30 days [4]: 0.14%
stability test percentage value (active ingredient %), 90 days [4]: 0.28%
stability test percentage value (active ingredient %), 180 days [4]: 0.45%
stability test percentage value (active ingredient %), 360 days [4]: 0.69%
stability test percentage value (active ingredient %), 720 days [4]: 0.92%
Moisture % K.F. [5]: 0.34%

C[S+](CCC(N)C(=O)[O-])C[C@H]1O[C@@H](n2cnc3c(N)ncnc32)[C@H](O)[C@@H]1O.O=S(=O)(O)O.O=S(=O)(O)O.[Cl-].[Cl-].[Mg+2] (some centres unmarked) [SAMe•2.0H2SO4•1.0MgCl2]
percentage of the active S,S stereoisomer remaining ([1]; 30 days): 96.3%
percentage of the active S,S stereoisomer remaining ([1]; 90 days): 95.3%
percentage of the active S,S stereoisomer remaining ([1]; 180 days): 93.3%
percentage of the active S,S stereoisomer remaining ([1]; 360 days): 91.0%
percentage of the active S,S stereoisomer remaining ([1]; 720 days): 88.0%
percentage of the active S,S stereoisomer remaining ([1]; T = 0): 97.2%
stability test percentage value (active ingredient %), 30 days [2]: 0.19%
stability test percentage value (active ingredient %), 60 days [2]: 0.34%
stability test percentage value (active ingredient %), 90 days [2]: 0.82%
stability test percentage value (active ingredient %), 120 days [2]: 1.12%
stability test percentage value (active ingredient %), 180 days [2]: 1.87%
percentage of active S,S stereoisomer remaining ([3]; 30 days): 89.3%
percentage of active S,S stereoisomer remaining ([3]; 60 days): 85.3%
percentage of active S,S stereoisomer remaining ([3]; 90 days): 83.3%
percentage of active S,S stereoisomer remaining ([3]; 120 days): 89.3%
percentage of active S,S stereoisomer remaining ([3]; 180 days): 75.3%
percentage of active S,S stereoisomer remaining ([3]; T = 0): 97.2%
stability test percentage value (active ingredient %), 30 days [4]: 0.10%
stability test percentage value (active ingredient %), 90 days [4]: 0.18%
stability test percentage value (active ingredient %), 180 days [4]: 0.25%
stability test percentage value (active ingredient %), 360 days [4]: 0.49%
stability test percentage value (active ingredient %), 720 days [4]: 0.62%
Moisture % K.F. [5]: 0.52%

C[S+](CCC(N)C(=O)[O-])C[C@H]1O[C@@H](n2cnc3c(N)ncnc32)[C@H](O)[C@@H]1O.Cl.Cl.[Cl-].[Cl-].[Mg+2] (some centres unmarked) [SAMe•2.0HCl•1.0MgCl2]
percentage of the active S,S stereoisomer remaining ([1]; 30 days): 96.6%
percentage of the active S,S stereoisomer remaining ([1]; 90 days): 95.7%
percentage of the active S,S stereoisomer remaining ([1]; 180 days): 94.7%
percentage of the active S,S stereoisomer remaining ([1]; 360 days): 92.5%
percentage of the active S,S stereoisomer remaining ([1]; 720 days): 88.0%
percentage of the active S,S stereoisomer remaining ([1]; T = 0): 97.4%
stability test percentage value (active ingredient %), 30 days [2]: 0.27%
stability test percentage value (active ingredient %), 60 days [2]: 0.45%
stability test percentage value (active ingredient %), 90 days [2]: 1.14%
stability test percentage value (active ingredient %), 120 days [2]: 1.45%
stability test percentage value (active ingredient %), 180 days [2]: 1.89%
percentage of active S,S stereoisomer remaining ([3]; 30 days): 92.9%
percentage of active S,S stereoisomer remaining ([3]; 60 days): 87.8%
percentage of active S,S stereoisomer remaining ([3]; 90 days): 83.4%
percentage of active S,S stereoisomer remaining ([3]; 120 days): 82.1%
percentage of active S,S stereoisomer remaining ([3]; 180 days): 78.2%
percentage of active S,S stereoisomer remaining ([3]; T = 0): 97.4%
stability test percentage value (active ingredient %), 30 days [4]: 0.17%
stability test percentage value (active ingredient %), 90 days [4]: 0.37%
stability test percentage value (active ingredient %), 180 days [4]: 0.58%
stability test percentage value (active ingredient %), 360 days [4]: 0.74%
stability test percentage value (active ingredient %), 720 days [4]: 0.98%
Moisture % K.F. [5]: 0.44%

C[S+](CCC(N)C(=O)[O-])C[C@H]1O[C@@H](n2cnc3c(N)ncnc32)[C@H](O)[C@@H]1O.Cl.Cl.O=S(=O)([O-])[O-].[Mg+2] (some centres unmarked) [SAMe•2.0HCl•1.0MgSO4]
percentage of the active S,S stereoisomer remaining ([1]; 30 days): 86.5%
percentage of the active S,S stereoisomer remaining ([1]; 90 days): 95.6%
percentage of the active S,S stereoisomer remaining ([1]; 180 days): 93.0%
percentage of the active S,S stereoisomer remaining ([1]; 360 days): 91.1%
percentage of the active S,S stereoisomer remaining ([1]; 720 days): 88.2%
percentage of the active S,S stereoisomer remaining ([1]; T = 0): 98.0%
stability test percentage value (active ingredient %), 30 days [2]: 0.27%
stability test percentage value (active ingredient %), 60 days [2]: 0.49%
stability test percentage value (active ingredient %), 90 days [2]: 0.67%
stability test percentage value (active ingredient %), 120 days [2]: 1.46%
stability test percentage value (active ingredient %), 180 days [2]: 1.62%
percentage of active S,S stereoisomer remaining ([3]; 30 days): 89.9%
percentage of active S,S stereoisomer remaining ([3]; 60 days): 87.9%
percentage of active S,S stereoisomer remaining ([3]; 90 days): 83.0%
percentage of active S,S stereoisomer remaining ([3]; 120 days): 79.1%
percentage of active S,S stereoisomer remaining ([3]; 180 days): 73.3%
percentage of active S,S stereoisomer remaining ([3]; T = 0): 98.0%
stability test percentage value (active ingredient %), 30 days [4]: 0.19%
stability test percentage value (active ingredient %), 90 days [4]: 0.28%
stability test percentage value (active ingredient %), 180 days [4]: 0.41%
stability test percentage value (active ingredient %), 360 days [4]: 0.65%
stability test percentage value (active ingredient %), 720 days [4]: 0.87%
Moisture % K.F. [5]: 0.52%
